# Test results published in US7294623B2, “Benzyl morpholine derivatives” (Eli Lilly and Company, priority 2002, dated 2007).
# Structures can show the parent of a compound that is named as a salt.
row,melting point,SMILES
1,211 to 215 °C,"CCOc1ccccc1S[C@H](c1cccc(F)c1)[C@H]1CNCCO1 (single isomer, unassigned) (as salt: hydrochloride) [Example 14]"
2,233 to 234 °C,"COc1ccccc1S[C@H](c1cccc(F)c1)[C@H]1CNCCO1 (single isomer, unassigned) (as salt: hydrochloride) [Example 13]"
3,183 to 187 °C,"Fc1cccc([C@@H](Sc2ccccc2Cl)[C@H]2CNCCO2)c1 (single isomer, unassigned) (as salt: hydrochloride) [Example 15]"
4,238 to 241 °C,"COc1ccccc1S[C@H](c1ccc(Cl)cc1)[C@H]1CNCCO1 (single isomer, unassigned) (as salt: hydrochloride) [Example 12]"
